{
  "source": "patent US11273152B2",
  "about": "“TRPV2 antagonists” (Instituto de Medicina Molecular João Lobo Antunes, priority 2017, dated 2022)",
  "key": {"TRPV1": {"target": "TRPV1 (Homo sapiens, UniProt Q8NER1)", "sequence (Q8NER1 whole entry)": "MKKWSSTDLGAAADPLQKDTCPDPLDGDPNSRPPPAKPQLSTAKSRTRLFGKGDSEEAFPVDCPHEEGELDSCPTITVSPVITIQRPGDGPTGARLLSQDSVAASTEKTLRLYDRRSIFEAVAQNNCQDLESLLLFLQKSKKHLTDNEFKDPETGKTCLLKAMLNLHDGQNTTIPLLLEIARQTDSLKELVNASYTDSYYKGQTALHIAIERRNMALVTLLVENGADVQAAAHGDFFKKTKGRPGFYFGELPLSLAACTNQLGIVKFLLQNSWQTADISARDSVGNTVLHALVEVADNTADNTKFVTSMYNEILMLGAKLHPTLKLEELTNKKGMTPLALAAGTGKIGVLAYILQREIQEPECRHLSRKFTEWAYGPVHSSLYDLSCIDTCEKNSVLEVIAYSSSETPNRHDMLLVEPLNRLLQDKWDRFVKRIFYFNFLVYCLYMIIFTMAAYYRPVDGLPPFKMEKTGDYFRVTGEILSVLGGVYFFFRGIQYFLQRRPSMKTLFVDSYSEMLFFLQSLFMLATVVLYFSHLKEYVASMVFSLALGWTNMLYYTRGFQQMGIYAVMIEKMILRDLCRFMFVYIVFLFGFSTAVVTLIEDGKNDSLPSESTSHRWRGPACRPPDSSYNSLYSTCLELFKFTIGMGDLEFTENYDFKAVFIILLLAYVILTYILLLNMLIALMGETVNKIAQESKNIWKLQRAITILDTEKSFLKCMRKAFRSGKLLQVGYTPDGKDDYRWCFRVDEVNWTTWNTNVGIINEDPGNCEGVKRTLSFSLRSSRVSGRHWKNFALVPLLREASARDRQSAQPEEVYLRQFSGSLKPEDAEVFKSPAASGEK", "assay": "Fluorescence cell-based assay, TRPV1", "conditions": "calcium 5 dye, duplicate", "method": "(§1) The assays were performed at SB Discovery (Glasgow, UK) on a fee-for-service basis. Human TRP cells were trypsinised, counted and seeded in black, clear-bottomed 96 well plates at a density of 50,000 cells per well in 100 μL volume and incubated overnight. Next day, the cells were loaded with calcium 5 dye or membrane potential dye. TRPV1-5, TRPA1, TRPM2, TRPM3, and TRPM8 were tested using the calcium 5 dye. TRPC1, TRPC3-7, and TRPM4-5 were tested using the membrane potential dye. Both dye solutions were made up in HEPES buffered Hank's balanced salt solution (HBSS). Dye solution (90 μL) was added to the wells and incubated at 37° C. for 1 hour. Test compounds and standard inhibitors (10 μL) were then added to the wells and incubated at room temperature for 10 minutes. The plates were then placed in the flexstation and fluorescence monitored every 1.52 seconds. After 20 seconds agonist was added and the fluorescence monitored for 2 minutes at 485 nm/525 nm and 530 nm/565 nm, Ex/Em, for the calcium 5 dye and the membrane potential dye respectively. Controls-TRPV1: capsazepine; TRPV2: tranilast; TRPV3: ruthenium red; TRPV4: ruthenium red; TRPV5: Gd^3+; TRPA1, ruthenium red; TRPC1: Gd^3+; TRPC3: Pyr3; TRPC4: ML 204; TRPC5: ML 204; TRPC6: ML 204; TRPC7: SKF 96365; TRPM2: 2-APB; TRPM3: Mef acid; TRPM4: clotrimazole; TRPM5: TPPO; TRPM8: 2-APB. […]"}, "TRPC3": {"target": "TRPC3 (Homo sapiens, UniProt Q13507)", "sequence (Q13507 whole entry)": "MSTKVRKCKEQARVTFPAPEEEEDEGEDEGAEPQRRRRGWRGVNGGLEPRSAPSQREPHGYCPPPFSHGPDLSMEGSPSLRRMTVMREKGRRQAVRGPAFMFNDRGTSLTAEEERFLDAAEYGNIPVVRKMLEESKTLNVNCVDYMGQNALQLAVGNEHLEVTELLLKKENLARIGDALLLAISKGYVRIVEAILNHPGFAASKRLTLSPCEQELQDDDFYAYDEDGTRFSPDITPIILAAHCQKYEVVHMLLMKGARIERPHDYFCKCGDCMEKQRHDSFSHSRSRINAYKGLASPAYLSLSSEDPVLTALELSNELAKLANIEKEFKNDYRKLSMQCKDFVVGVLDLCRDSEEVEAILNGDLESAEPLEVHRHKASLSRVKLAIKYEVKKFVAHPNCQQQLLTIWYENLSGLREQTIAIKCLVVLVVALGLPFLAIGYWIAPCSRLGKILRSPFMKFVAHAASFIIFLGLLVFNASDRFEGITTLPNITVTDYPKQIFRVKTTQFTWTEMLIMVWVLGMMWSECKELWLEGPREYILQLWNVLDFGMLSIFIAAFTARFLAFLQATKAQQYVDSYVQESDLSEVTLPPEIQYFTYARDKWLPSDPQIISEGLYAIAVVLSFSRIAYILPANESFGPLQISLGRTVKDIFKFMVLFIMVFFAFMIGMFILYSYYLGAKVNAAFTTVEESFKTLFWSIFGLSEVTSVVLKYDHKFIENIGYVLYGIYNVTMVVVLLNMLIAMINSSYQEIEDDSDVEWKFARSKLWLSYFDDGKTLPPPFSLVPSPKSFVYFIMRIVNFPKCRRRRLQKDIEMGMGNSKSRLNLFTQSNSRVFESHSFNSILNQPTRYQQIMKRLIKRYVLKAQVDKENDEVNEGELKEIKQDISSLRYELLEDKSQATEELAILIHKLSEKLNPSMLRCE", "assay": "Fluorescence cell-based assay, TRPC3", "conditions": "membrane potential dye, duplicate", "method": "as §1"}, "U251 cells": {"tested_on": "U251 cells", "assay": "Toxicity assay (CellTiter-Blue), U251", "format": "cell-based", "conditions": "24, 48 and 72 hours; various concentrations", "method": "5,000 cells/well were seeded in 96 well plates with DMEM containing 2% FBS. The next day piperlongumine was added at various concentrations. […] At 24, 48 and 72 hours the media was removed and replaced with CellTiter-Blue (Promega, 1:20 in media). The plate was incubated for 90 minutes before measuring fluorescence intensity."}, "TRPV2 [1]": {"target": "T1, TRPV2 (Homo sapiens, UniProt Q9Y5S1)", "T1 sequence (Q9Y5S1 1-764)": "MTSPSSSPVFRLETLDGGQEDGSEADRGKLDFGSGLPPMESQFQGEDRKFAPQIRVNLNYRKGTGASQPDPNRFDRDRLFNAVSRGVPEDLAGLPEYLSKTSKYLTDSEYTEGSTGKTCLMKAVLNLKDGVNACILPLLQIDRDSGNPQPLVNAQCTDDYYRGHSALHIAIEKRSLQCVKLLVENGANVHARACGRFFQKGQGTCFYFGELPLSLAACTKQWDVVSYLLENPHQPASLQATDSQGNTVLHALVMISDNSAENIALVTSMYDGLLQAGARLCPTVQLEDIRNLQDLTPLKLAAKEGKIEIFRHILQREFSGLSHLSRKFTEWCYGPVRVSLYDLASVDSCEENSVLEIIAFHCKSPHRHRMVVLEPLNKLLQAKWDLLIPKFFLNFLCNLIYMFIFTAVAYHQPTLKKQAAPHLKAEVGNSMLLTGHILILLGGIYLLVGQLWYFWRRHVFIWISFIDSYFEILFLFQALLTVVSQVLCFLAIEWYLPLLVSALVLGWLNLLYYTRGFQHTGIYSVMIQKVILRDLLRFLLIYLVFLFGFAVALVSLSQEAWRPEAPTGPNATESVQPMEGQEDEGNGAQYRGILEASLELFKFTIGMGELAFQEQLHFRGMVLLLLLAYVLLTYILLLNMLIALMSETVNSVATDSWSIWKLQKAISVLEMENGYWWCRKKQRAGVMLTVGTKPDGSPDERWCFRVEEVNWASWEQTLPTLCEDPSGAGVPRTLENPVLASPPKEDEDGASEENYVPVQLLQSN", "assay": "Fluorescence cell-based assay, TRPV2 (cannabidiol-evoked calcium influx)", "conditions": "TRPV2", "method": "The assays were performed at SB Discovery (Glasgow, UK) on a fee-for-service basis. Human TRP cells were trypsinised, counted and seeded in black, clear-bottomed 96 well plates at a density of 50,000 cells per well in 100 μL volume and incubated overnight. Next day, the cells were loaded with calcium 5 dye or membrane potential dye. TRPV1-5, TRPA1, TRPM2, TRPM3, and TRPM8 were tested using the calcium 5 dye. TRPC1, TRPC3-7, and TRPM4-5 were tested using the membrane potential dye. Both dye solutions were made up in HEPES buffered Hank's balanced salt solution (HBSS). Dye solution (90 μL) was added to the wells and incubated at 37° C. for 1 hour. Test compounds and standard inhibitors (10 μL) were then added to the wells and incubated at room temperature for 10 minutes. The plates were then placed in the flexstation and fluorescence monitored every 1.52 seconds. After 20 seconds agonist was added and the fluorescence monitored for 2 minutes at 485 nm/525 nm and 530 nm/565 nm, Ex/Em, for the calcium 5 dye and the membrane potential dye respectively. Controls-TRPV1: capsazepine; TRPV2: tranilast; TRPV3: ruthenium red; TRPV4: ruthenium red; TRPV5: Gd^3+; TRPA1, ruthenium red; TRPC1: Gd^3+; TRPC3: Pyr3; TRPC4: ML 204; TRPC5: ML 204; TRPC6: ML 204; TRPC7: SKF 96365; TRPM2: 2-APB; TRPM3: Mef acid; TRPM4: clotrimazole; TRPM5: TPPO; TRPM8: 2-APB. Control data was in all cases within historical range."}, "rabbit TRPV2 orthologue": {"tested_on": "rabbit TRPV2 orthologue", "assay": "Isothermal titration calorimetry, rabbit TRPV2", "format": "binding", "conditions": "rabbit TRPV2 constructs; 100 μM"}, "TRPV2 [2]": {"target": "T1, TRPV2", "assay": "Manual patch-clamp assay, hTRPV2 stable HEK-293 cells", "format": "cell-based", "conditions": "n=2; for IC50: read-out: IC50 against TRPV2, patch-clamp assay", "method": "The assays were performed at SB Discovery (Glasgow, UK) on a fee-for-service basis. Concentration-response curves and washout assays were performed using a manual patch clamp method. HEK-293 cells were grown and prepared, according to the adapted procedure for hTRPV2 stable cell lines at SB Discovery. Cells were serum starved for approximately 24 hours and then changed to serum-containing media prior to electrophysiology testing. The manual patch-clamp assay was carried out at room temperature using a traditional electrophysiological unit. Cells were used within 2-3 hours after addition of serum containing media to the cells. The standard extracellular solution contained 145 mM NaCl, 4 mM KCl, 2 mM CaCl2, 1 mM MgCl2, 10 mM HEPES and 10 mM glucose. The pH was adjusted to 7.4 with NaOH, and the osmolarity was measured as 311 mOsm/L. The standard intracellular solution contained 50 mM KCl, 10 mM NaCl, 60 mM KF, 2 mM MgCl2, 20 mM EGTA and 10 mM HEPES. The pH was adjusted to 7.2 with KOH and the osmolarity was measured as 286 mOsm/L. A standard ramp protocol was used to monitor currents upon addition of control (extracellular solution) and compound solutions. The voltage protocol consisted of a series of voltage ramps from −100 mV to +100 mV, every 5 seconds, from a holding potential of −60 mV. The maximum outward current values during the recordings at +100 mV were used for analysis. Manual patch clamp experiments were carried out using an Axon 200B amplifier and a Digidata 1440A acquisition system from Axon Instruments (Molecular Devices, USA). The software program pClamp (version 10) from Axon Instruments was used to stimulate and record electrical activity. Capacitative transients were compensated electronically from the recordings, however the voltage drop across the series resistance and the liquid junction potential were not compensated. The series resistance was generally less than 10 MΩ, with a mean cell capacity of approximately 25 pF. The GraphPad Prism (version 5) software was used to analyze and plot all graphs. The agonist (cannabidiol; Abcam #ab120448) was prepared as 100 mM stock in 100% DMSO and diluted to 4 μM or 10 μM in physiological solution prior to testing. Piperlongumine was prepared as 100 mM stock in 100% DMSO and diluted to the specified concentrations in physiological solution (100, 50, 10, 1 and 0.1 μM), also containing 4 μM or 10 μM cannabidiol. Ruthenium red (Sigma, #R2751) was prepared daily as 10 mM stock ion distilled water and diluted to 100 μM in physiological solution."}, "HepG2 cells": {"tested_on": "HepG2 cells", "assay": "Wound-healing scratch assay, HepG2", "format": "cell-based", "conditions": "24-hour"}},
  "note": "Entries after “also recorded” stand apart in the source; their conditions may differ.",
  "data": [
    {"molecule": "COc1cc(/C=C/C(=O)N2CCC=CC2=O)cc(OC)c1OC", "note": "[Compound 1, piperlongumine]", "values": [
      {"measurement": "IC50", "setting": "TRPV1", "value": "> 100", "unit": "µM"},
      {"measurement": "IC50", "setting": "TRPC3", "value": "> 100", "unit": "µM"},
      {"measurement": "Sensitivity of U251 cells", "setting": "U251 cells", "value": "sensitive to PL in a dose- and time-dependent manner"},
      {"measurement": "Ligand Efficiency", "setting": "TRPV2 [1]", "value": 0.32},
      {"measurement": "IC50", "setting": "TRPV2 [1]; calcium 5 dye, spread in log units, duplicate, read-out: IC50/μM ± SD", "value": 4.6, "unit": "µM"},
      {"measurement": "Binding by isothermal titration calorimetry", "setting": "rabbit TRPV2 orthologue", "value": "did not bind"},
      {"measurement": "TRPV2 activity after washout (reversibility)", "setting": "TRPV2 [2]; 1 at 100 μM, CBD 4 μM", "value": "fully restored upon washout; also recorded: full TRPV2 activity can be reinstated"},
      {"measurement": "IC50", "setting": "TRPV2 [2]; stimulus: 4 μM CBD, spread in log units", "value": 1, "unit": "µM"},
      {"measurement": "IC50", "setting": "TRPV2 [2]; stimulus: 10 μM CBD", "value": "> 100", "unit": "µM"},
      {"measurement": "Cell death during wound-healing assay", "setting": "HepG2 cells; 5 μM", "value": "did not induce significant cell death"},
      {"measurement": "Cell migration, wound healing", "setting": "HepG2 cells; 1 at 5 μM", "value": "significantly reduced migration; also recorded: inhibits cancer cell migration in a Ca^2+-dependent manner"}
    ]}
  ]
}
